Laboratory results: ChEMBL document CHEMBL5620375, “Tetrahydrobenzo[h]quinoline derivatives as a novel chemotype for dual antileishmanial-antimalarial activity graced with antitubercular activity: Design, synthesis and biological evaluation” (Eur J Med Chem, 2023)
pIC50: −log10 of the molar value. Values after ≈ are worked out from the molar mass of the structure shown.

Experiments:
[1] = test system: Leishmania major; assay: Antileishmanial activity against Leishmania major promastigotes assessed as inhibition of parasite growth incubated for 48 hrs by alamar blue reagent based ELISA; format: functional, organism-based
[2] = test system: Leishmania major; assay: Antileishmanial activity against Leishmania major amastigotes assessed as inhibition of parasite growth incubated for 72 hrs by resazurin reagent based ELISA; format: functional, organism-based
[3] = test system: Leishmania major; assay: Antileishmanial activity against Leishmania major promastigotes assessed as parasite survival incubated for 48 hrs by alamar blue reagent based ELISA relative to control; format: functional
[4] = test system: Leishmania major; assay: Antileishmanial activity against Leishmania major promastigotes assessed as parasite survival incubated for 48 hrs in presence of 20 uM of folic acid by alamar blue reagent based ELISA relative to control; format: functional
[5] = test system: Leishmania major; assay: Antileishmanial activity against Leishmania major promastigotes assessed as parasite survival incubated for 48 hrs in presence of 100 uM of folic acid by alamar blue reagent based ELISA relative to control; format: functional
[6] = test system: Leishmania major; assay: Antileishmanial activity against Leishmania major promastigotes assessed as parasite survival incubated for 48 hrs in presence of 20 uM of folinic acid by alamar blue reagent based ELISA relative to control; format: functional
[7] = test system: Leishmania major; assay: Antileishmanial activity against Leishmania major promastigotes assessed as parasite survival incubated for 48 hrs in presence of 100 uM of folinic acid by alamar blue reagent based ELISA relative to control; format: functional
[8] = test system: Plasmodium berghei; assay: Antimalarial activity against Plasmodium berghei ANKA infected in mouse assessed as parasitemia at 48.4 microM/Kg,po measured after 96 hrs by giemsa staining analysis relative to control; format: functional; settings: at 48.4 µmol/kg
[9] = test system: Plasmodium berghei; assay: Antimalarial activity against Plasmodium berghei ANKA infected in mouse assessed as reduction in parasite growth at 48.4 microM/Kg,po measured after 96 hrs by giemsa staining analysis; format: functional; set-up: scale not given: the % may be the effect or the level left; settings: at 48.4 µmol/kg
[10] = test system: Plasmodium falciparum; assay: Antimalarial activity against chloroquine-resistant Plasmodium falciparum RKL9 assessed as inhibition of parasite growth incubated for 24 hrs by giemsa staining analysis; format: functional, organism-based; settings: RKL9, 24 h
[11] = test system: Mycobacterium tuberculosis; assay: Antitubercular activity against Mycobacterium tuberculosis H37Ra assessed as inhibition of bacterial growth by microplate alamar blue assay; format: functional
[12] = Cytotoxicity against African green monkey Vero cells incubated for 72 hrs by crystal violet staining based assay; format: toxicity, cell-based; settings: chlorocebus sabaeus
[13] = Selectivity index, ratio of CC50 for cytotoxicity against African green monkey Vero cells to IC50 for antimalarial activity against chloroquine-resistant Plasmodium falciparum RKL9; format: toxicity, cell-based; settings: read-out: Ratio CC50/IC50
[14] = Selectivity index, ratio of CC50 for cytotoxicity against African green monkey Vero cells to IC50 for antileishmanial activity against Leishmania major; format: toxicity, cell-based; settings: read-out: Ratio CC50/IC50
[15] = Selectivity index, ratio of CC50 for cytotoxicity against African green monkey Vero cells to MIC for antitubercular activity against Mycobacterium tuberculosis H37Ra; format: toxicity, cell-based; settings: read-out: Selectivity Index
[16] = Acute toxicity in mouse assessed as change in body weight at 25 to 150 mg/kg,po administrated for 3 days; format: organism-based; settings: in vivo, 72 h, dose 25-150 mg/kg, time 3 day
[17] = Acute toxicity in mouse assessed as signs of toxicity at 25 to 150 mg/kg,po administrated for 3 days; format: organism-based; settings: in vivo, 72 h, dose 25-150 mg/kg, time 3 day
[18] = test system: Plasmodium berghei; assay: Antimalarial activity against Plasmodium berghei ANKA infected in mouse assessed as mean survival time at 48.4 microM/Kg,po measured after 96 hrs; format: functional
[19] = test system: Mycobacterium tuberculosis; assay: Antitubercular activity against XDR Mycobacterium tuberculosis RCMB 2674 assessed as inhibition of bacterial growth by microplate alamar blue assay; format: functional
[20] = test system: Leishmania major; assay: Antileishmanial activity against Leishmania major promastigotes assessed as parasite survival at 100 uM incubated for 48 hrs by alamar blue reagent based ELISA relative to control
[21] = test system: Leishmania major; assay: Antileishmanial activity against Leishmania major promastigotes assessed as parasite survival at 100 uM incubated for 48 hrs in presence of 100 uM of folic acid by alamar blue reagent based ELISA relative to control

SMILES | pIC50 [1] | pIC50 [2] | Activity [8] [%] | Activity [9] [%] | pIC50 [10] | MIC [11] [µM] | Survival [18] [days] | also measured
CC(=O)N1CCC(C(=O)NCc2ccc3c(c2)-c2[nH]c(=O)c(C#N)c(-c4cc(Cl)ccc4Cl)c2CC3)CC1 | 6.39 | 6.30 | 3 | 96.67 | 7.41 | 28.4 (≈ 15.6 µg/mL) |  | Survival [3]: 24%; Survival [4]: 78%; Survival [5]: 88%; Survival [6]: 82%; Survival [7]: 94%; CC50 at 72 h [12]: 455 µM; selectivity ratio [13]: 11800; selectivity ratio [14]: 1110; selectivity ratio [15]: 16; Activity [16]: Non-Toxic; Activity [17]: Non-Toxic
COc1cc(-c2c3c([nH]c(=O)c2C#N)-c2ccccc2CC3)ccc1O | 6.24 | 6.16 | 2 | 97.78 | 7.72 | 90.7 (≈ 31.2 µg/mL) |  | Survival [3]: 22%; Survival [4]: 76%; Survival [5]: 85%; Survival [6]: 78%; Survival [7]: 89%; CC50 at 72 h [12]: 363 µM; selectivity ratio [13]: 18300; selectivity ratio [14]: 629; selectivity ratio [15]: 4; Activity [16]: Non-Toxic; Activity [17]: Non-Toxic
COc1ccc(-c2c3c([nH]c(=O)c2C#N)-c2ccccc2CC3)cc1OC | 5.65 | 5.33 | 38 | 57.78 |  | 10.9 (≈ 3.9 µg/mL) | 8.66 | 
N#Cc1c(-c2cccs2)c2c([nH]c1=O)-c1ccccc1CC2 | 5.58 | 5.31 | 2 | 97.78 | 7.68 | 12.8 (≈ 3.9 µg/mL) |  | Activity [16]: Non-Toxic; Activity [17]: Non-Toxic
COc1ccccc1-c1c2c([nH]c(=O)c1C#N)-c1ccccc1CC2 | 5.26 | 5.20 | 42 | 53.33 |  | 2.98 (≈ 0.979 µg/mL) | 6.5 | MIC [19]: 23.8 µM (≈ 7.82 µg/mL); CC50 at 72 h [12]: 381 µM; selectivity ratio [14]: 60.6; selectivity ratio [15]: 127
CCc1nc(N)nc(N)c1-c1ccc(Cl)cc1 [PYRIMETHAMINE] |  |  | 0 | 100 | 7.89 |  |  | 
COc1ccc(-c2c3c([nH]c(=O)c2C#N)-c2ccccc2CC3)cc1O | 5.85 | 5.43 | 33 | 63.33 |  | 5.66 (≈ 1.95 µg/mL) | 7.33 | MIC [19]: 182 µM (≈ 62.6 µg/mL)
Cc1cccc(-c2c3c([nH]c(=O)c2C#N)-c2ccccc2CC3)c1 | 5.46 | 5.25 | 18 | 80 |  | 100 (≈ 31.2 µg/mL) | 9.33 | 
CCN(CC)CCCC(C)Nc1ccnc2cc(Cl)ccc12.O=P(O)(O)O.O=P(O)(O)O (configuration not stated) [CHLOROQUINE PHOSPHATE] |  |  | 0 | 100 |  |  | 13.12 | 
COc1cc(-c2c3c([nH]c(=O)c2C#N)-c2ccccc2CC3)cc(OC)c1OC | 5.60 | 5.43 | 8 | 91.11 | 7.02 | 20.1 (≈ 7.81 µg/mL) | 12.4 | 
N#Cc1c(O)nc2c(c1-c1cccc([N+](=O)[O-])c1)CCc1ccccc1-2 | 5.54 | 5.40 | 28 | 68.89 |  | 5.67 (≈ 1.95 µg/mL) | 7.66 | MIC [19]: 91.1 µM (≈ 31.3 µg/mL)
N#Cc1c(-c2ccccc2Br)c2c([nH]c1=O)-c1ccccc1CC2 | 5.68 | 5.42 | 36 | 60 |  | 10.3 (≈ 3.9 µg/mL) | 7.33 | 
N#Cc1c(-c2ccccc2[N+](=O)[O-])c2c([nH]c1=O)-c1ccccc1CC2 | 5.37 | 5.25 | 17 | 81.11 |  |  | 8.83 | 
COc1ccc(-c2c3c([nH]c(=O)c2C#N)-c2ccccc2CC3)cc1 | 5.41 | 5.33 | 26 | 71.11 |  | 11.9 (≈ 3.9 µg/mL) | 9.66 | 
CC(=O)N1CCC(C(=O)NCc2ccc3c(c2)-c2[nH]c(=O)c(C#N)c(-c4cc(C(F)(F)F)ccc4Cl)c2CC3)CC1 | 5.91 | 5.49 | 56 | 37.78 |  | 53.6 (≈ 31.2 µg/mL) | 5.66 | 
NNC(=O)c1ccncc1 [ISONIAZID] |  |  |  |  |  | 0.875 (≈ 0.12 µg/mL) |  | 
N#Cc1c(-c2ccc(Cl)cc2Cl)c2c([nH]c1=O)-c1ccccc1CC2 | 5.28 | 5.22 | 32 | 64.44 |  | 5.31 (≈ 1.95 µg/mL) | 4.5 | MIC [19]: > 342 µM
COc1ccc(OC)c(-c2c3c([nH]c(=O)c2C#N)-c2ccccc2CC3)c1 | 5.63 | 5.53 | 5 | 94.44 | 7.05 | 5.44 (≈ 1.95 µg/mL) |  | MIC [19]: 175 µM (≈ 62.6 µg/mL)
COc1cccc(-c2c3c([nH]c(=O)c2C#N)-c2ccccc2CC3)c1 | 5.38 | 5.31 | 11 | 87.78 |  | 23.8 (≈ 7.81 µg/mL) | 10.66 | 
COc1cc(Cc2cnc(N)nc2N)cc(OC)c1OC [TRIMETHOPRIM] |  |  |  |  |  |  |  | survival at 100 µM [20]: 71%; survival at 100 µM [21]: 99%
